Reference: PMC9352478, “Cephalosporin as Potent Urease and Tyrosinase Inhibitor: Exploration through Enzyme Inhibition, Kinetic Mechanism, and Molecular Docking Studies” (BioMed Research International, 2022)
Entries after “also recorded” stand apart in the source; their conditions may differ. Where two headings read alike, the source gives them in different places.

Columns and labels:
[1] = molecular target: T1, jack bean urease (Canavalia ensiformis, UniProt P07374); experiment: biochemical
T1 construct: purchased Sigma
T1 sequence (P07374 whole entry, looked up): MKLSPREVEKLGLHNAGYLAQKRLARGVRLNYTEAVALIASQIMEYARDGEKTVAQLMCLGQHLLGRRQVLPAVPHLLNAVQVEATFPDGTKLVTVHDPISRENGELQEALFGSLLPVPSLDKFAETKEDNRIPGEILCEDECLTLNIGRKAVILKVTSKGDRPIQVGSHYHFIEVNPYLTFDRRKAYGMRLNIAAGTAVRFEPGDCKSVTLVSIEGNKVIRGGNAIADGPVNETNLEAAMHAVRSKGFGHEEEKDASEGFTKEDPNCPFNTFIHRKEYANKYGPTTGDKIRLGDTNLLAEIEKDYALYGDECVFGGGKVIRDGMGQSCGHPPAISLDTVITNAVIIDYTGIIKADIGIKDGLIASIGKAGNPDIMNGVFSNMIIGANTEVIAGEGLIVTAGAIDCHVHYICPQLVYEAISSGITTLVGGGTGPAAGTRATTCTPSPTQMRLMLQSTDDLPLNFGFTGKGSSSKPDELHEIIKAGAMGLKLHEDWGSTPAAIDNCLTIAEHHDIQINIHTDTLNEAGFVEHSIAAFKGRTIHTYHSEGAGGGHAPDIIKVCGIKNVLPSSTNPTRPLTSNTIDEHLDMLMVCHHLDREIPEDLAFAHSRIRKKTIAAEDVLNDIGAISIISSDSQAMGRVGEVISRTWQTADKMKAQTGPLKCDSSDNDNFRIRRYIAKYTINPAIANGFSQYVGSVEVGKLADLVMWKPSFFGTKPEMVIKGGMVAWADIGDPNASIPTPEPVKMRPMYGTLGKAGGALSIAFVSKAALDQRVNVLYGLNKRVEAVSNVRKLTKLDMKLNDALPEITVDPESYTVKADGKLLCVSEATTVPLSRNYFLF
Experimental: To evaluate the urease enzyme activity, assay described by Weatherburn 1967 was performed. In 96-well plate, 10 μl of enzyme (jack bean urease, 5 U/ml), 40 μl buffer (100 mM urea, 0.01 M K2HPO4, 1 mM EDTA, and 0.01 M […], pH 8.2), and 20 μl of test drug were loaded. Following 15 min incubation at 37°C, 40 μl of alkali reagent (0.5%, w/v NaOH and 0.1% active chloride NaOCl) and 40 μl of phenol reagents (1%, w/v phenol and 0.005%, w/v sodium nitroprusside) were added.

[2] = molecular target: T2, urease (Canavalia ensiformis, UniProt P07374); experiment: Urease enzyme kinetics and inhibition mechanism (Lineweaver-Burk, Dixon, enzyme activity vs enzyme concentration plots); assay type: biochemical, jack bean; conditions: for Mode of urease inhibition: Lineweaver-Burk plot; for Reversible or irreversible urease inhibition: enzyme activity vs enzyme concentration 0.44-14 μg/ml; for ESI dissociation constant (Ki'), urease: secondary replot of Lineweaver-Burk intercept, substrate urea
T2 construct: purchased Sigma
T2 sequence (P07374 whole entry, looked up): as above
Experimental: (§1) To this end, the Lineweaver-Burk plots of 1/absorbance versus 1/urea and 1/absorbance versus 1/L-DOPA were plotted. In all kinetic studies, drug concentrations (as indicated in Lineweaver-Burk plot) and respective substrates, urea in buffer (0.063 to 2 mM) for urease and L-DOPA (0.06 to 2 mM) for tyrosinase, were added and plates were incubated for 10 min at 37°C. Later, respective enzymes were added in plates and absorbance (wavelengths same as above) was monitored for 5 min with 1 min interval. The Lineweaver-Burk plot showing type of enzyme inhibition was plotted as inverse of velocities (1/V) versus inverse of substrate concentration 1/[S] Mm^−1. Later, inhibition constant (Ki) was evaluated by both the Dixon plot and from Lineweaver-Burk plot, by secondary replot of slope versus concentrations of inhibitor.
(§2) To this end, a plot among remaining enzyme activity versus various concentrations of respective enzymes in the presence of drug concentrations (as indicated in graph) was devised as determinant of reversible or irreversible behaviour of enzyme inhibition.

[3] = molecular target: T3, mushroom tyrosinase (Agaricus bisporus, UniProt C7FF04); experiment: Tyrosinase enzyme kinetics and inhibition mechanism (Lineweaver-Burk, Dixon, diphenolase activity plots); assay type: biochemical; conditions: for Mode of tyrosinase inhibition: Lineweaver-Burk plot, oxidation of L-DOPA; for Reversible or irreversible tyrosinase inhibition: diphenolase activity, enzyme activity vs enzyme concentration 0.44-14 μg/ml; for ESI dissociation constant (Ki'), tyrosinase: secondary replot of Lineweaver-Burk intercept; for ESI dissociation constant (Ki'), tyrosinase / Ki: substrate L-DOPA; for Ki: secondary replot of Lineweaver-Burk slope, read-out: EI dissociation constant (Ki), tyrosinase
T3 construct: purchased Sigma
T3 sequence (C7FF04 1-392 limits assumed): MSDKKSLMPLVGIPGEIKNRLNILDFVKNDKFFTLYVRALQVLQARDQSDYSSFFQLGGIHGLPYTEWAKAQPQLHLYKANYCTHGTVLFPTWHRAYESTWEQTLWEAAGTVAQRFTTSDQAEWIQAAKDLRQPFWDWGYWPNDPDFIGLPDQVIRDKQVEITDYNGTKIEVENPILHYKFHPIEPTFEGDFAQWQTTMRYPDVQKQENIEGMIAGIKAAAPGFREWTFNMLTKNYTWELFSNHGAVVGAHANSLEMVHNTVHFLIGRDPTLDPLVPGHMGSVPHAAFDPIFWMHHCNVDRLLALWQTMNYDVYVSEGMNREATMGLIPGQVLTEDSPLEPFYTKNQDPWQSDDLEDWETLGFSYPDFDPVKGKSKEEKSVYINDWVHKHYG
Experimental: as §1, §2

## CC1=C(C(=O)O)N2C(=O)[C@@H](NC(=O)[C@H](N)c3ccc(O)cc3)[C@H]2SC1 [Cefadroxil]
[1]
  IC50: 220 ± 6 µM

## COCC1=C(C(=O)OC(C)OC(=O)OC(C)C)N2C(=O)[C@@H](NC(=O)/C(=N\OC)c3csc(N)n3)[C@H]2SC1 (stereo partly shown) [Cefpodoxime proxetil]
[1]
  IC50: 100 ± 14 µM

## CO/N=C(\C(=O)N[C@@H]1C(=O)N2C(C(=O)O)=C(CSc3nc(=O)c(=O)[nH]n3C)CS[C@H]12)c1csc(N)n1 [Ceftriaxone sodium]
[2]
  Ki: 700 µM
  Mode of urease inhibition: competitive
  Reversible or irreversible urease inhibition: irreversibly
  ESI dissociation constant (Ki'), urease: 6000 µM
[3]
  Mode of tyrosinase inhibition: mixed-type, preferentially competitive
  Reversible or irreversible tyrosinase inhibition: irreversibly; also recorded: irreversible
  ESI dissociation constant (Ki'), tyrosinase: 600 µM
  Ki: 100 µM
[1]
  IC50: 80 ± 4 µM

## CO/N=C(\C(=O)N[C@@H]1C(=O)N2C(C(=O)O)=C(COC(N)=O)CS[C@H]12)c1ccco1 [Cefuroxime]
[1]
  IC50: 180 ± 9 µM

## CC(C)(O/N=C(\C(=O)N[C@@H]1C(=O)N2C(C(=O)[O-])=C(C[n+]3ccccc3)CS[C@H]12)c1csc(N)n1)C(=O)O [Ceftazidime]
[1]
  IC50: 91 ± 7 µM

## NC(N)=S [Thiourea]
[1]; jack bean urease 5 U/ml, 100 mM urea, pH 8.2, OD625 nm, read-out: Jack bean urease inhibition IC50 ± SEM
  IC50: 19 ± 2 µM

## N[C@@H](C(=O)N[C@@H]1C(=O)N2C(C(=O)O)=C(Cl)CS[C@H]12)c1ccccc1 [Cefaclor]
[1]
  IC50: 170 ± 16 µM

## CO/N=C(\C(=O)N[C@@H]1C(=O)N2C(C(=O)[O-])=C(C[N+]3(C)CCCC3)CS[C@H]12)c1csc(N)n1 [Cefepime]
[1]
  IC50: 190 ± 37 µM

## CC1=C(C(=O)O)N2C(=O)[C@@H](NC(=O)[C@H](N)C3=CCC=CC3)[C@H]2SC1 [Cephradine]
[1]
  IC50: 120 ± 9 µM

## CO/N=C(\C(=O)N[C@@H]1C(=O)N2C(C(=O)O)=C(COC(C)=O)CS[C@H]12)c1csc(N)n1 [Cefotaxime sodium]
[2]
  Ki: 120 µM
  Mode of urease inhibition: competitive
  Reversible or irreversible urease inhibition: irreversibly
  ESI dissociation constant (Ki'), urease: 30000 µM
[3]
  Mode of tyrosinase inhibition: mixed-type, preferentially competitive
  Reversible or irreversible tyrosinase inhibition: irreversibly; also recorded: irreversible
  ESI dissociation constant (Ki'), tyrosinase: 800 µM
  Ki: 70 µM
[1]
  IC50: 60 ± 4 µM

## C=CC1=C(C(=O)O)N2C(=O)[C@@H](NC(=O)/C(=N\OCC(=O)O)c3csc(N)n3)[C@H]2SC1 [Cefixime trihydrate]
[1]
  IC50: 180 ± 14 µM

## CC1=C(C(=O)O)N2C(=O)[C@@H](NC(=O)[C@H](N)c3ccccc3)[C@H]2SC1 [Cephalexin]
[1]
  IC50: 370 ± 46 µM
